The values below come from patent US20250188069A1, “COMPOUNDS AND METHODS FOR DEGRADING CASEIN KINASE 1 ALPHA” (PIN THERAPEUTICS, INC., priority 2022, published 2025).

T1 sequence (P48729 whole entry): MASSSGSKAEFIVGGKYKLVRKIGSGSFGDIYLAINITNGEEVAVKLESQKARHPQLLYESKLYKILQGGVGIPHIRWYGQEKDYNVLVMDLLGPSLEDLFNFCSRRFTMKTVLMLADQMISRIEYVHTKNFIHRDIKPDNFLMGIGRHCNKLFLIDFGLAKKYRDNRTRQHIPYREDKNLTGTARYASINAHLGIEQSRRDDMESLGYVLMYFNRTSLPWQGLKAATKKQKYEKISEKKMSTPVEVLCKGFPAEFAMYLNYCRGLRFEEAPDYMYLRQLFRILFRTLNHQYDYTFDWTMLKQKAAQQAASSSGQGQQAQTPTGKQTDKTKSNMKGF
T1 sequence (Q96SW2 whole entry): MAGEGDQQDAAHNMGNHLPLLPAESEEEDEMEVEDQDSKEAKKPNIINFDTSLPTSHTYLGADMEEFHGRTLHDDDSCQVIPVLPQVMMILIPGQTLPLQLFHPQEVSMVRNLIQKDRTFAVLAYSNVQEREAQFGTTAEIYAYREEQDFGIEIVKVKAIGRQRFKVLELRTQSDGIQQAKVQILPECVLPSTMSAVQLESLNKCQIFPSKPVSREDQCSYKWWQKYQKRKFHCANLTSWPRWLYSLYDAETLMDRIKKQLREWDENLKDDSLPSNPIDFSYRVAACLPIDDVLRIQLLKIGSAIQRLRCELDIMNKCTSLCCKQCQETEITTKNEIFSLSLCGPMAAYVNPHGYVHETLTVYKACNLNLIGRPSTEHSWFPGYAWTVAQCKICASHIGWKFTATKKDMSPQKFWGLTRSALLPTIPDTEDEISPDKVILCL
T1 sequence (Q16531 whole entry partner): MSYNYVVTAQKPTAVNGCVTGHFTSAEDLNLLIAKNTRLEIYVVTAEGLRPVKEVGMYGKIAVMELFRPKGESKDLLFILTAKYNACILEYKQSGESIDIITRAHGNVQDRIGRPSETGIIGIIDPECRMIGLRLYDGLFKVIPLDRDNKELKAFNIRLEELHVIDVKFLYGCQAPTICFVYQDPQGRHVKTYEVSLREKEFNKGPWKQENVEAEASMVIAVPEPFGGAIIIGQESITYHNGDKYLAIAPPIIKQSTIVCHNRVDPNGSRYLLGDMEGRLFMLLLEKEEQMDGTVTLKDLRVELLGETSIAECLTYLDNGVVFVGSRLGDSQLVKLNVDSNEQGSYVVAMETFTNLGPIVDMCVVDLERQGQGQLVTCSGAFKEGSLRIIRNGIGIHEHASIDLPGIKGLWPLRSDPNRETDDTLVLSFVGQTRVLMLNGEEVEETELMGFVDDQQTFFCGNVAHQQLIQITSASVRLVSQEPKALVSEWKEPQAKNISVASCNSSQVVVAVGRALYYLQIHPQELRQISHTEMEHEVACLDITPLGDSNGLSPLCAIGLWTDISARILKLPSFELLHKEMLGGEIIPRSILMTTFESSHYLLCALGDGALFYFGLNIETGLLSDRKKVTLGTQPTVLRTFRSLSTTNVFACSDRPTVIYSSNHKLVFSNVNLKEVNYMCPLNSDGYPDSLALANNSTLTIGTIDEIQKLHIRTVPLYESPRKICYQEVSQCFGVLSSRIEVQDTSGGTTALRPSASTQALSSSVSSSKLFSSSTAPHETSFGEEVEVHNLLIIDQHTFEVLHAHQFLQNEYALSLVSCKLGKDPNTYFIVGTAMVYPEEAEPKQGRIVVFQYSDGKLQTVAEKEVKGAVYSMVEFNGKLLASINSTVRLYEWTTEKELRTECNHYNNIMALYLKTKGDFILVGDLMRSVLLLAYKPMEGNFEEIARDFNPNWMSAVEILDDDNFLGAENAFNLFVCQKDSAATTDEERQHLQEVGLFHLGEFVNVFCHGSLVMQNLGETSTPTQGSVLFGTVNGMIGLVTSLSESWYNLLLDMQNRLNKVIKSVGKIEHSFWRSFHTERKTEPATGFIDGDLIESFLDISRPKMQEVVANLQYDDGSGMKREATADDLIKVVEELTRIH

In one experiment the test system is MV-4-11 cells. Description: AML cell viability assay (RealTime-Glo). The experiment is classed as cell-based. Particulars: Homo sapiens, MV4-11; IC50 class; MV-4-11 cells, RealTime-Glo after 44 hrs of treatment (TABLE 3); read-out: Cell viability classification.
On to `C[C@@H](N[C@H]1CC[C@H](N(CCC2CC2)c2cccc3c2CN(C2CCC(=O)NC2=O)C3=O)CC1)C(F)(F)F` (stereo partly drawn) [Compound 548, 3-(4-((2-cyclopropylethyl)((1r,4r)-4-(((R)-1,1,1-trifluoropropan-2-yl)amino)cyclohexyl)amino)-1-oxoisoindolin-2-yl)piperidine-2,6-dione], for which the IC50 lay in the range of 0.1 to 1 µM.
For `C[C@@H](N[C@H]1CC[C@@H](N(CCC2CC2)c2cccc3c2CN(C2CCC(=O)NC2=O)C3=O)CC1)C(F)(F)F` (stereo partly drawn) [Compound 548A, 3-(4-((2-cyclopropylethyl)((1s,4s)-4-(((R)-1,1,1-trifluoropropan-2-yl)amino)cyclohexyl)amino)-1-oxoisoindolin-2-yl)piperidine-2,6-dione], the IC50 lay in the range of 0.1 to 1 µM.

A further experiment has as its target T1, CK1α (Homo sapiens, UniProt P48729+Q96SW2). Description: CK1α HiBiT assay in CK1a_HiBiT_Jurkat cells. Format: cell-based. To be noted: DC50 class, 16 hours, Nano-Glo HiBiT Lytic Detection, read-out: CK1α degradation classification. On the procedure:
CK1a_HiBiT_Jurkat cells were culture in RPMI 1640 medium (Gibco, 11875093) with 10% FBS under standard tissue culture conditions. Briefly, Compounds of the present disclosure was added to 30,000 cells in a white 96-well plate (9-point dose response, top concentration […], half-log serial dilution, final DMSO concentration 0.5%) and incubated for 16 hours. CK1a level was determined in along with the Nano-Glo HiBiT Lytic Detection system [Promega N3050] with final concentration of 1 x. The luminescence was normalized to that of DMSO-treated samples. DC50 values were obtained using three-parameter non-linear regressions using Prism (GraphPad). The compounds are classified based on DC50 values as follows. • A: DC50 is less than or equal to 1×10^−7; • B: DC50 is greater than 1×10^−7 & less than or equal to 1×10^−6; • C: DC50 is greater than 1×10^−6; • NA: not calculated (no activity detected, <25% viability reduction at 1 uM)
On to `O=C1CCC(N2Cc3c(cccc3N(CC3CC(F)(F)C3)[C@H]3CC[C@@H](NCCC(F)(F)F)CC3)C2=O)C(=O)N1` (stereo partly shown) [Compound 650A, 3-(4-{[(3,3-difluorocyclobutyl)methyl][(1s,4s)-4-[(3,3,3-trifluoropropyl)amino]cyclohexyl]amino}-1-oxo-3H-isoindol-2-yl)piperidine-2,6-dione], for which the DC50 was > 1 µM.
In the case of `O=C1CCC(N2Cc3c(cccc3N(CC3CC(F)(F)C3)[C@H]3CC[C@@H](NCC4(C(F)(F)F)CC4)CC3)C2=O)C(=O)N1` (stereo partly shown) [Compound 655A, 3-(4-{[(3,3-difluorocyclobutyl)methyl][(1s,4s)-4-({[1-(trifluoromethyl)cyclopropyl]methyl}amino)cyclohexyl]amino}-1-oxo-3H-isoindol-2-yl)piperidine-2,6-dione], the DC50 was > 1 µM.
For the compound `O=C1CCC(N2Cc3c(cccc3N(CC3CC4(CCC4)C3)[C@H]3CC[C@@H](NCC4(C(F)(F)F)CC4)CC3)C2=O)C(=O)N1` (stereo partly shown) [Compound 656A, 3-(1-oxo-4-{[(1s,4s)-4-({[1-(trifluoromethyl)cyclopropyl]methyl}amino)cyclohexyl]({spiro[3.3]heptan-2-ylmethyl})amino}-3H-isoindol-2-yl)piperidine-2,6-dione; trifluoroacetic acid], the DC50 is > 1 µM.
The same measure, in the same setting: in the case of `CC1(C)CC(CN(c2cccc3c2CN(C2CCC(=O)NC2=O)C3=O)[C@H]2CC[C@@H](NCC3(C(F)(F)F)CC3)CC2)C1` (stereo partly shown) [Compound 657A, 3-(4-{[(3,3-dimethylcyclobutyl)methyl][(1s,4s)-4-({[1-(trifluoromethyl)cyclopropyl]methyl}amino)cyclohexyl]amino}-1-oxo-3H-isoindol-2-yl)piperidine-2,6-dione; bis(trifluoroacetic acid)] it was > 1 µM; in that of `O=C1CCC(N2Cc3c(cccc3N(CCC3CC3)[C@H]3CC[C@@H](N4CCCC4)CC3)C2=O)C(=O)N1` (stereo partly shown) [Compound 669A], 0.1 to 1 µM.
The same measure, in the same setting: the same measure for `O=C1CCC(N2Cc3c(cccc3N(CCC3CC3)[C@H]3CC[C@@H](N4CCC(F)(F)C4)CC3)C2=O)C(=O)N1` (stereo partly shown) [Compound 670A]: 0.1 to 1 µM.
Consider `O=C1CCC(N2Cc3c(cccc3N(CCC3CC3)[C@H]3CC[C@@H](N4CCC(F)C4)CC3)C2=O)C(=O)N1` (stereo partly shown) [Compound 671A, 3-{4-[(2-cyclopropylethyl)[(1s,4s)-4-(3-fluoropyrrolidin-1-yl)cyclohexyl]amino]-1-oxo-3H-isoindol-2-yl}piperidine-2,6-dione], for which the DC50 lay within 0.1 to 1 µM.
Same read-out and setting: the same measure for `O=C1CCC(N2Cc3c(cccc3N(CCC3CC3)[C@H]3CC[C@@H](N4CCC(C(F)(F)F)C4)CC3)C2=O)C(=O)N1` (stereo partly shown) [Compound 672A, 3-{4-[(2-cyclopropylethyl)[(1s,4s)-4-[3-(trifluoromethyl)pyrrolidin-1-yl]cyclohexyl]amino]-1-oxo-3H-isoindol-2-yl}piperidine-2,6-dione; trifluoroacetic acid]: 0.1 to 1 µM; for `O=C1CCC(N2Cc3c(cccc3N(CCC3CC3)[C@H]3CC[C@@H](N4CC(C(F)(F)F)C4)CC3)C2=O)C(=O)N1` (stereo partly shown) [Compound 673A]: 0.1 to 1 µM.

A further experiment deals with T1, CK1α. Put plainly: CK1α degradation, flow cytometry in MV4-11 cells. Particulars: % reduction of CK1α compared to DMSO, MV4-11 cells at 316 nM for 16 hours, read-out: CK1α degradation classification. The experiment is classed as cell-based. Also on record: CK1α levels were determined in MV-4-11 cells using Jess (Protein Simple); host or cells: MV-4-11. For orientation: In flow cytometry, cells or beads pass a laser one at a time.
As for `C[C@@H](N[C@H]1CC[C@H](N(CCC2CC2)c2cccc3c2CN(C2CCC(=O)NC2=O)C3=O)CC1)C(F)(F)F` (stereo partly drawn) [Compound 548, 3-(4-((2-cyclopropylethyl)((1r,4r)-4-(((R)-1,1,1-trifluoropropan-2-yl)amino)cyclohexyl)amino)-1-oxoisoindolin-2-yl)piperidine-2,6-dione], the Dmax at 0.316 µM was < 50%.
For the compound `C[C@@H](N[C@H]1CC[C@@H](N(CCC2CC2)c2cccc3c2CN(C2CCC(=O)NC2=O)C3=O)CC1)C(F)(F)F` (stereo partly drawn) [Compound 548A, 3-(4-((2-cyclopropylethyl)((1s,4s)-4-(((R)-1,1,1-trifluoropropan-2-yl)amino)cyclohexyl)amino)-1-oxoisoindolin-2-yl)piperidine-2,6-dione], the Dmax at 0.316 µM was in the range of 50 to 75%.
